From the kinase profiling compilation of Christmann-Franck et al. (2016)

Legend:
Assay in all cases: radiometric filter-binding kinase assay
[1] = target: CAMKK1 (human) (UniProt Q8N5S9)
[2] = target: CHEK2 (human) (UniProt O96017)
[3] = target: NEK7 (human) (UniProt Q8TDX7)
[4] = target: AURKC (human) (UniProt Q9UQB9)
[5] = target: MARK3 (human) (UniProt P27448)
[6] = target: ABL1 (human) (UniProt P00519)
[7] = target: PDGFRA (human) (UniProt P16234)
[8] = target: TEK (human) (UniProt Q02763)
[9] = target: TTBK1 (human) (UniProt Q5TCY1)
[10] = target: STK33 (human) (UniProt Q9BYT3)
[11] = target: STK16 (human) (UniProt O75716)
[12] = tested on: OXSR1 (human), O95747 [T185E]
[13] = target: STK24 (human) (UniProt Q9Y6E0)
[14] = target: CDK9 CCNT1 (human) (UniProt P50750+O60563)
[15] = target: PRKCG (human) (UniProt P05129)
[16] = target: PTK6 (human) (UniProt Q13882)
[17] = target: MAP4K5 (human) (UniProt Q9Y4K4)
[18] = target: SIK2 (human) (UniProt Q9H0K1)
[19] = target: ULK2 (human) (UniProt Q8IYT8)
[20] = target: EIF2AK3 (human) (UniProt Q9NZJ5)
[21] = target: ZAP70 (human) (UniProt P43403)
[22] = target: PRKAA1 PRKAB2 PRKAG1 (human) (UniProt O43741+Q13131+P54619)
[23] = target: TSSK1B (human) (UniProt Q9BXA7)
[24] = target: TESK1 (human) (UniProt Q15569)
[25] = target: MAPK7 (human) (UniProt Q13164)
[26] = target: WNK1 (human) (UniProt Q9H4A3)
[27] = tested on: TGFBR1 (human), P36897 [T204D]
[28] = target: ULK1 (human) (UniProt O75385)
[29] = target: TLK1 (human) (UniProt Q9UKI8)
[30] = target: TTBK2 (human) (UniProt Q6IQ55)
[31] = target: DDR2 (human) (UniProt Q16832)
[32] = target: CSNK1G2 (human) (UniProt P78368)
[33] = target: IRAK1 (human) (UniProt P51617)
[34] = target: SIK3 (human) (UniProt Q9Y2K2)
[35] = target: MAP4K3 (human) (UniProt Q8IVH8)

WNK1 (human), sequence (Q9H4A3 whole entry, looked up): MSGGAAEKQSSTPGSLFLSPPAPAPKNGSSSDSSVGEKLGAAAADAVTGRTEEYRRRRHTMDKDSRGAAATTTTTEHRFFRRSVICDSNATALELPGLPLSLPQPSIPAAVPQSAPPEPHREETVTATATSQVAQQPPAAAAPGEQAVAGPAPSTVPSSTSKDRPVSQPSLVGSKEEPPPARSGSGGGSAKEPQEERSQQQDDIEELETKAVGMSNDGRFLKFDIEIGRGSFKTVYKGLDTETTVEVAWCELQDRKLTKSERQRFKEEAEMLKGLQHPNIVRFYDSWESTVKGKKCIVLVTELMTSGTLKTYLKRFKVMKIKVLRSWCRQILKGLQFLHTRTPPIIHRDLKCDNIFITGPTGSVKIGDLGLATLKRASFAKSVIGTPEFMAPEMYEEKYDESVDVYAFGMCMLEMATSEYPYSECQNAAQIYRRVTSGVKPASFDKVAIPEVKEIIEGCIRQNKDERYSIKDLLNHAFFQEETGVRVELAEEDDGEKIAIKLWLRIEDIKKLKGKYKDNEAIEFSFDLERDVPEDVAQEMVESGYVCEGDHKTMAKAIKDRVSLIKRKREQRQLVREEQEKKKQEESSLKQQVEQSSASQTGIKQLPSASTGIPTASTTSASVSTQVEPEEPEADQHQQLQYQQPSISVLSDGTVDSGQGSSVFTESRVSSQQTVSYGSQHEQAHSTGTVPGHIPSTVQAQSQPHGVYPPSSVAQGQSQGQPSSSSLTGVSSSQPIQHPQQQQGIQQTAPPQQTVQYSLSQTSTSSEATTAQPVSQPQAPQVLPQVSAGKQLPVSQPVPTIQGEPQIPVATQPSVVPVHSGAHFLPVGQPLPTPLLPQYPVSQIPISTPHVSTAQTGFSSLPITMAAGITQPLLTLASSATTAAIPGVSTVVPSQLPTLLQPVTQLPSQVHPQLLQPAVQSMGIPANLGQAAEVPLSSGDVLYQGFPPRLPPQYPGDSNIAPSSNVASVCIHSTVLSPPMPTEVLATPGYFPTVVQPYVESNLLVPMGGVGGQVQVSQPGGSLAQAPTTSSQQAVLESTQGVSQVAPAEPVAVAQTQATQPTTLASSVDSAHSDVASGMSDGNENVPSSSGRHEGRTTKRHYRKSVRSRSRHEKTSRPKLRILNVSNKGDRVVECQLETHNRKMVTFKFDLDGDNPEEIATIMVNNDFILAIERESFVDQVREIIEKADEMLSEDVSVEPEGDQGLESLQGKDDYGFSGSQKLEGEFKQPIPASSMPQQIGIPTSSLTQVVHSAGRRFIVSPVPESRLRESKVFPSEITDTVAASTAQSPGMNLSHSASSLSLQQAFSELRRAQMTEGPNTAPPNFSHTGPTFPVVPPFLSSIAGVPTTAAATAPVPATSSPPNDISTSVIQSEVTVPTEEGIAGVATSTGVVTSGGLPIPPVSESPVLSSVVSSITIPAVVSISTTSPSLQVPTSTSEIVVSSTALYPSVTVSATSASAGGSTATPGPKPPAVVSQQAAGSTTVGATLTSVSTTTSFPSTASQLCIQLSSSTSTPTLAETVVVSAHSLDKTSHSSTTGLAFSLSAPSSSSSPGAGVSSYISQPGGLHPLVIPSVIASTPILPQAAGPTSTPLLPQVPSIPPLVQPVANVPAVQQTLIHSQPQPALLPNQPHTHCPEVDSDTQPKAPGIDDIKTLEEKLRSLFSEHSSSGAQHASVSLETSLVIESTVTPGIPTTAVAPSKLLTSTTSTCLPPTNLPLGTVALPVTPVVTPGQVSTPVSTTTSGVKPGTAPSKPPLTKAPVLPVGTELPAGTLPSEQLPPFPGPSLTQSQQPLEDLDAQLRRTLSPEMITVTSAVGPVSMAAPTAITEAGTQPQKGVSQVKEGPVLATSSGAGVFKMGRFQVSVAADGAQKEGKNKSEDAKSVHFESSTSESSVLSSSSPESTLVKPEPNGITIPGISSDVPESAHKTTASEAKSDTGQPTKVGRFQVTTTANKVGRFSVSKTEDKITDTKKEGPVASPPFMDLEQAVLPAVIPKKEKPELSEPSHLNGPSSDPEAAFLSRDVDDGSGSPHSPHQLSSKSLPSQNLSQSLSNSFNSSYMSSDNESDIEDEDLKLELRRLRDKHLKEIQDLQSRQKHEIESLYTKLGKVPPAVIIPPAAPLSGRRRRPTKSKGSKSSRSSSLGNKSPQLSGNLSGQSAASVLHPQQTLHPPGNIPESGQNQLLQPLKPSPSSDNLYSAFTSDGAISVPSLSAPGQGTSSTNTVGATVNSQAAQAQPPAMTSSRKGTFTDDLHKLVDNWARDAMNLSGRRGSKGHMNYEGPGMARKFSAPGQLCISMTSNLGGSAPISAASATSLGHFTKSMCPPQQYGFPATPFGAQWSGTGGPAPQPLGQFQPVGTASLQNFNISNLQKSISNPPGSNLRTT
AURKC (human), sequence (Q9UQB9 whole entry, looked up): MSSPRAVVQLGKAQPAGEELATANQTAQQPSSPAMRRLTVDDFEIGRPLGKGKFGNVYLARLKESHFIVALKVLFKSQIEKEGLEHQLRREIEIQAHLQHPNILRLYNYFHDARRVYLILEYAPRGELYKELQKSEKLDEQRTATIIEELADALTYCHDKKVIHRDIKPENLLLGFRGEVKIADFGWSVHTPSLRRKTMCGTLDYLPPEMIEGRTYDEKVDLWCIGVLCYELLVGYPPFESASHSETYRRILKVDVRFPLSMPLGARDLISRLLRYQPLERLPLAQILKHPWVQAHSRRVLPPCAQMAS
EIF2AK3 (human), sequence (Q9NZJ5 whole entry, looked up): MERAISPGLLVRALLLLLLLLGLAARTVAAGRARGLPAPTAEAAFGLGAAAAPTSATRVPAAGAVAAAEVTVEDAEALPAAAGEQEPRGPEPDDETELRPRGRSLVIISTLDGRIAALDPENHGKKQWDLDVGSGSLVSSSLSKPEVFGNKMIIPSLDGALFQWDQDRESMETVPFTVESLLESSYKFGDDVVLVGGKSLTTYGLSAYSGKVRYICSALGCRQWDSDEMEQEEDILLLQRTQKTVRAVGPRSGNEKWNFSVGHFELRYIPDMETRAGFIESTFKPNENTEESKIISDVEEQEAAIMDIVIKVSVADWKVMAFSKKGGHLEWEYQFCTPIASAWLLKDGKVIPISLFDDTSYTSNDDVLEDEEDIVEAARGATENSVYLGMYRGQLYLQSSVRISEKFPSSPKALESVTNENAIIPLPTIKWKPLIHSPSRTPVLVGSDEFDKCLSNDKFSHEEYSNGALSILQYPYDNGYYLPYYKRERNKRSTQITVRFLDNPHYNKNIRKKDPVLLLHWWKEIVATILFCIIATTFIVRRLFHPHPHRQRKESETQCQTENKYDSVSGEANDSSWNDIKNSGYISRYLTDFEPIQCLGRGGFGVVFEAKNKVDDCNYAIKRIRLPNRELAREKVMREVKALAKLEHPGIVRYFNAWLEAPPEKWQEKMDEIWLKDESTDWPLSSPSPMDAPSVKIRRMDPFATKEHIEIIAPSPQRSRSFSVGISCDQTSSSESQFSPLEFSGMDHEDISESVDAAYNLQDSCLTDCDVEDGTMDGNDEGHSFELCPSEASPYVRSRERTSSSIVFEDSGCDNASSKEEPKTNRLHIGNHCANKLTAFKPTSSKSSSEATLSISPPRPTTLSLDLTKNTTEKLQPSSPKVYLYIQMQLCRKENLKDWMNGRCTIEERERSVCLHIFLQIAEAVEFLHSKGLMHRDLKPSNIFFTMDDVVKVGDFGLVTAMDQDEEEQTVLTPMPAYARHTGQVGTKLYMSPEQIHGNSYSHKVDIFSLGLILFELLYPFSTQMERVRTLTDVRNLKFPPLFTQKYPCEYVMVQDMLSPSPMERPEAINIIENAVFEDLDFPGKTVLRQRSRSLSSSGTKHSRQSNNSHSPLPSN
TESK1 (human), sequence (Q15569 whole entry, looked up): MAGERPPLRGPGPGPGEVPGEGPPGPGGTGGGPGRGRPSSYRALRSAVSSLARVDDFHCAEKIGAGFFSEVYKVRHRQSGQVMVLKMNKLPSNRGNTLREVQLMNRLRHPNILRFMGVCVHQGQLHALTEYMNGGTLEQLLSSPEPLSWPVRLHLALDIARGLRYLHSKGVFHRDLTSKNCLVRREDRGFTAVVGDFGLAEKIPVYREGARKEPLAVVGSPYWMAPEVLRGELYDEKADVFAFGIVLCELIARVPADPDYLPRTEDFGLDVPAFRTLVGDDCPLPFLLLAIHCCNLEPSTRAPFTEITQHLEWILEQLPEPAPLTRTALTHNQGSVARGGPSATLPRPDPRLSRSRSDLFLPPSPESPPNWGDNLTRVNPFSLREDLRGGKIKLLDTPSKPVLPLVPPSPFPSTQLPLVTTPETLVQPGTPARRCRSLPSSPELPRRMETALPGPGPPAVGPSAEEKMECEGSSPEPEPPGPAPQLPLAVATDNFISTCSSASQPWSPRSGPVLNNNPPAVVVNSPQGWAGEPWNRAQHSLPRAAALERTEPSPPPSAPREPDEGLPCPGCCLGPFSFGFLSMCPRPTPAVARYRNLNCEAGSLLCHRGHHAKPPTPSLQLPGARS

In the case of `COc1ccc2c(c1)c1c3c(c4c5ccccc5n(C)c4c1n2CC(O)CN(C)C)C(=O)NC3=O` (stereo unspecified), the residual activity ([1]; compound 0.1 µM) is reported as 109%, the residual activity ([1]; compound 1.0 µM) is reported as 97% and the residual activity ([1]; compound 10.0 µM) is reported as 101%. The residual activity ([2]; compound 0.1 µM) was 57%, the residual activity ([2]; compound 1.0 µM) was 27% and the residual activity ([2]; compound 10.0 µM) was 10%. It also gave a residual activity ([3]; compound 0.1 µM) of 94%, a residual activity ([3]; compound 1.0 µM) of 84% and a residual activity ([3]; compound 10.0 µM) of 82%. It also gave a residual activity ([4]; compound 0.1 µM) of 48%, a residual activity ([4]; compound 1.0 µM) of 13% and a residual activity ([4]; compound 10.0 µM) of 7%. The residual activity ([5]; compound 0.1 µM) was 93%, the residual activity ([5]; compound 1.0 µM) was 68% and the residual activity ([5]; compound 10.0 µM) was 33%.
`Cc1cccc(Nc2nn(C)c3ncnc(N)c23)c1` showed a residual activity ([1]; compound 1.0 µM) of 111%, a residual activity ([1]; compound 10.0 µM) of 114% and a residual activity ([2]; compound 1.0 µM) of 84%. The residual activity ([2]; compound 10.0 µM) was 98%, the residual activity ([3]; compound 1.0 µM) was 88% and the residual activity ([3]; compound 10.0 µM) was 91%. The residual activity ([4]; compound 1.0 µM) was 92%, the residual activity ([4]; compound 10.0 µM) was 117% and the residual activity ([5]; compound 1.0 µM) was 89%. It also gave a residual activity ([5]; compound 10.0 µM) of 94%.
`CCn1c(-c2nonc2N)nc2cncc(CNC3CCNCC3)c21` showed a residual activity ([6]; compound 0.1 µM) of 102%, a residual activity ([6]; compound 1.0 µM) of 109% and a residual activity ([6]; compound 10.0 µM) of 96%. It also gave a residual activity ([2]; compound 0.1 µM) of 94%, a residual activity ([2]; compound 1.0 µM) of 89% and a residual activity ([2]; compound 10.0 µM) of 69%. It also gave a residual activity ([7]; compound 0.1 µM) of 120%, a residual activity ([7]; compound 1.0 µM) of 101% and a residual activity ([7]; compound 10.0 µM) of 99%. For the same compound, the residual activity ([8]; compound 1.0 µM) was 116%, the residual activity ([8]; compound 10.0 µM) was 111% and the residual activity ([9]; compound 0.1 µM) was 104%. For the same compound, the residual activity ([9]; compound 1.0 µM) was 100%, the residual activity ([9]; compound 10.0 µM) was 91% and the residual activity ([10]; compound 0.1 µM) was 104%. The residual activity ([10]; compound 1.0 µM) was 106%, the residual activity ([10]; compound 10.0 µM) was 74% and the residual activity ([11]; compound 1.0 µM) was 103%. The residual activity ([11]; compound 10.0 µM) was 83%, the residual activity ([12]; compound 0.1 µM) was 107% and the residual activity ([12]; compound 1.0 µM) was 102%. It also gave a residual activity ([12]; compound 10.0 µM) of 97%, a residual activity ([13]; compound 0.1 µM) of 86% and a residual activity ([13]; compound 1.0 µM) of 91%. For the same compound, the residual activity ([13]; compound 10.0 µM) was 73%, the residual activity ([14]; compound 0.1 µM) was 103% and the residual activity ([14]; compound 1.0 µM) was 115%. The residual activity ([14]; compound 10.0 µM) was 103%, the residual activity ([15]; compound 0.1 µM) was 96% and the residual activity ([15]; compound 1.0 µM) was 80%. It also gave a residual activity ([15]; compound 10.0 µM) of 46%, a residual activity ([16]; compound 0.1 µM) of 91% and a residual activity ([16]; compound 10.0 µM) of 91%. The residual activity ([17]; compound 0.1 µM) was 107%, the residual activity ([17]; compound 1.0 µM) was 103% and the residual activity ([17]; compound 10.0 µM) was 84%. For the same compound, the residual activity ([18]; compound 0.1 µM) was 97%, the residual activity ([18]; compound 1.0 µM) was 93% and the residual activity ([18]; compound 10.0 µM) was 95%. The residual activity ([19]; compound 0.1 µM) was 93%, the residual activity ([19]; compound 1.0 µM) was 98% and the residual activity ([19]; compound 10.0 µM) was 73%. It also gave a residual activity ([20]; compound 0.1 µM) of 93%, a residual activity ([20]; compound 1.0 µM) of 105% and a residual activity ([20]; compound 10.0 µM) of 94%. The residual activity ([21]; compound 0.1 µM) was 83%, the residual activity ([21]; compound 1.0 µM) was 84% and the residual activity ([21]; compound 10.0 µM) was 84%. The residual activity ([22]; compound 0.1 µM) was 115%, the residual activity ([22]; compound 1.0 µM) was 78% and the residual activity ([22]; compound 10.0 µM) was 34%. It also gave a residual activity ([23]; compound 0.1 µM) of 88%, a residual activity ([23]; compound 10.0 µM) of 42% and a residual activity ([24]; compound 0.1 µM) of 103%. It also gave a residual activity ([24]; compound 1.0 µM) of 114%, a residual activity ([24]; compound 10.0 µM) of 104% and a residual activity ([25]; compound 0.1 µM) of 96%. The residual activity ([25]; compound 1.0 µM) was 83%, the residual activity ([25]; compound 10.0 µM) was 64% and the residual activity ([26]; compound 0.1 µM) was 106%. The residual activity ([26]; compound 1.0 µM) was 102%, the residual activity ([26]; compound 10.0 µM) was 100% and the residual activity ([27]; compound 0.1 µM) was 85%. The residual activity ([27]; compound 1.0 µM) was 90%, the residual activity ([27]; compound 10.0 µM) was 92% and the residual activity ([28]; compound 0.1 µM) was 83%. The residual activity ([28]; compound 1.0 µM) was 74%, the residual activity ([28]; compound 10.0 µM) was 43% and the residual activity ([29]; compound 0.1 µM) was 92%. The residual activity ([29]; compound 1.0 µM) was 92%, the residual activity ([29]; compound 10.0 µM) was 88% and the residual activity ([30]; compound 0.1 µM) was 91%. The residual activity ([30]; compound 1.0 µM) was 95%, the residual activity ([30]; compound 10.0 µM) was 101% and the residual activity ([31]; compound 0.1 µM) was 108%. For the same compound, the residual activity ([31]; compound 1.0 µM) was 97%, the residual activity ([31]; compound 10.0 µM) was 104% and the residual activity ([32]; compound 0.1 µM) was 101%. It also gave a residual activity ([32]; compound 1.0 µM) of 92%, a residual activity ([32]; compound 10.0 µM) of 92% and a residual activity ([33]; compound 0.1 µM) of 99%. For the same compound, the residual activity ([33]; compound 1.0 µM) was 103%, the residual activity ([33]; compound 10.0 µM) was 75% and the residual activity ([5]; compound 0.1 µM) was 88%. The residual activity ([5]; compound 1.0 µM) was 87%, the residual activity ([5]; compound 10.0 µM) was 56% and the residual activity ([34]; compound 0.1 µM) was 89%. The residual activity ([34]; compound 1.0 µM) was 94%, the residual activity ([34]; compound 10.0 µM) was 89% and the residual activity ([35]; compound 0.1 µM) was 99%. The residual activity ([35]; compound 10.0 µM) was 66%.
